Values quoted from earlier work in patent US4966768A, “Sustained release etodolac” (priority 1988, dated 1990).
Entries after “also recorded” stand apart in the source; their conditions may differ.

What was measured:
[1] = in vivo
adjuvant arthirtis = details: reported in U.S. Pat. No. 4,533,551

- difference in solubility between pH 5 and 7 (between pH 5 to 7): thirty
SMILES: CCc1cccc2c3c([nH]c12)C(CC)(CC(=O)O)OCC3 (centres unmarked) [Etodolac, 1,8-diethyl-1,3,4,9-tetrahydropyrano[3,4-b] indole-1-acetic acid]
- reported pharmacological properties (in words) [1]: analgesic and anti-inflammatory properties
- activity in adjuvant arthritis (in words) (adjuvant arthirtis): active in the treatment of adjuvant arthirtis
- aqueous solubility (in words) (below pH 3): very low and pH independent below pH 3; also recorded: water insoluble to an appreciable extent below pH 3
- aqueous solubility with rising pH (in words) (up to pH 5 and from pH 5 to 7): gradually increases with rising pH up to 5 and linearly increases with increasing pH to 7
